This note sets out measurements from article PMC8252455, “Prediction of a clinically effective dose of THY1773, a novel V 1B receptor antagonist, based on preclinical data” (Biopharmaceutics & Drug Disposition, 2021).

Series [1] in a line: Parallel artificial membrane permeability assay (PAMPA). It counts as in vitro ADME. On the procedure: The membrane permeability of THY1773 was measured using a parallel artificial membrane permeability assay (PAMPA) Evolution instrument (Pion Inc.). A “sandwich” plate consisting of a donor bottom plate with stir bars and an acceptor filter plate was used for the experiment. A donor plate was prepared by the addition of THY1773 to diluted PRISMA HT at pH 6.2 (final concentration of 12.5 μmol/L). An acceptor plate was coated with GIT‐0 lipid solution, followed by the addition of acceptor sink buffer (pH 7.4). After incubation for 4 h at room temperature, the concentrations of THY1773 in the reference, donor, and acceptor solutions were measured with a UV plate reader. The apparent permeability (Papp) was calculated using the PAMPA Evolution software (version 3.1; Pion Inc.).

Series [2] can be described thus: Plasma protein binding by equilibrium dialysis, dog plasma. Type of series: in vitro ADME. Conditions: 300 ng/ml. As to the method: The plasma protein binding of THY1773 in rats, dogs, and humans was evaluated by an equilibrium dialysis method using a 96‐well equilibrium dialysis plate (HTDialysis) with a 12–14 kDa cut‐off dialysis membrane. THY1773 was dissolved in dimethyl sulfoxide, and spiked with rat, dog, or human plasma at a final concentration of 300 ng/ml. An aliquot of plasma containing THY1773 and sodium phosphate buffer (pH 7.4) was added into the donor side and the receiver side of each designated well, respectively. After incubation for 6 h at a rate of 50 oscillation/min at 37°C in an air incubator, an aliquot of each side of each well was collected and mixed with acetonitrile/methanol (9:1, vol/vol) containing the IS. Each sample was centrifuged at 3974 × g for 10 min at 4°C to remove the precipitated proteins, and the resultant supernatants were subjected to LC‐MS/MS analysis. The protein binding (%) was calculated using the Boudinot formula (Boudinot & Jusko, 1984).
(In general: In equilibrium dialysis free small molecules cross a membrane that holds back macromolecules.)

The nature of series [3]: PK and urinary excretion in rats. It counts as in vivo, rat. As to the method:
The PK and urinary excretion of THY1773 in rats (1 mg/kg) and dogs (0.5 mg/kg) under fasted conditions were evaluated following intravenous or oral administration of THY1773. THY1773 was dissolved in 10% (vol/vol) hydroxypropyl‐β‐cyclodextrin at pH 4 for intravenous administration, or suspended in 0.5% (wt/vol) methyl cellulose 400 for oral administration. After a single intravenous or oral administration of THY1773, blood samples were collected into tubes containing EDTA‐2K as an anticoagulant. The scheduled time points were predose (dog only), 5 (intravenous only), 15, 30 min, 1, 2, 4, 8, 12, and 24 h postdose. Plasma was separated by centrifugation. Urine samples were collected into bottles set on ice for 24 h after intravenous administration of THY1773. Plasma and urine samples were treated with 4 volumes of acetonitrile/methanol (9:1, vol/vol) containing the IS. After centrifugation (3639 × g, 4°C, 10 min) to remove precipitated proteins, the supernatant was subjected to LC‐MS/MS analysis. The distributions of THY1773 into brain and pituitary gland in rats were investigated after a single oral administration of THY1773 (1 mg/kg). Blood was collected from the tail vein into tubes containing EDTA‐2K at 1 h after a single oral administration of THY1773, and the plasma was separated by centrifugation (12000 × g, 4°C, 3 min). After blood collection, the brain and pituitary gland were excised followed by homogenization with approximately 4 volumes of distilled water. Plasma, brain, and pituitary samples were treated with 4 volumes of acetonitrile/methanol (9:1, vol/vol) containing the IS and centrifuged (3639 × g, 4°C, 10 min). Aliquots of the supernatant were subjected to LC‐MS/MS analysis.
The plasma concentration–time profiles of THY1773 were analyzed by a non‐compartmental analysis with PK analysis software Phoenix WinNonlin® (version 6.1; Certara), and the PK parameters were calculated. The fraction excreted in urine was calculated by dividing the amount of THY1773 excreted in urine by the administered dose.

In the next series the test system is major CYP isoforms. The series is described as follows: In vitro CYP inhibition or induction potential. It counts as in vitro ADME. Conditions: data not shown.
[4] abbreviates: male rats, iv 1 mg/kg, mean (%CV), n=3.
Where [5] appears, read: male rats, po 1 mg/kg, mean (%CV), n=3.

For the molecule `CC(C)NC(=O)Cn1c(-c2cccc(Cl)c2)nn(-c2ccc(CCN3CCOCC3)cc2)c1=O` [THY1773], the “Papp in PAMPA” value in series [1] (donor pH 6.2, 12.5 μmol/L, 4 h, room temperature) is on record as 128.9 10^−6 cm/s. Further, the “Permeability in the gut (assessment from PAMPA)” value in series [1] (pH 6.2) is on record as “high permeability”. This molecule also yielded a Plasma protein binding in series [2] of 89.6%. Also, in series [3] (setting [4]), the “AUC0‐∞” value is recorded as 762 (14.9) h·ng/ml, the CLtotal is reported as 1330 (13.7) ml/h/kg, the Vdss is on record as 2220 (5.7) ml/kg and the t1/2 was 1.38 (2.3) h. Further, the “F (oral bioavailability)” value in series [3] (male rats, po 1 mg/kg, 1 mg/kg) stood at 46.6%. In addition, in series [3] (setting [5]), the “AUC0‐∞” value was 355 (13.5) h·ng/ml, the Cmax was 136 (11.8) ng/ml, the t1/2 was 1.45 (5.5) h and the tmax is recorded as 0.833 (34.6) h. Further, the “CLrenal compared with fu × GFR” value in series [3] (rats) is recorded as “comparable to fu × GFR”. Moreover, the “CLtotal as share of hepatic blood flow” value in series [3] (rats, single intravenous administration) is given as “approximately 30 % of hepatic blood flow”. Also, the “Urinary excretion of unchanged drug” value in series [3] (rats, within 24 h post intravenous dosing) was 4.6%. Moreover, in the series on major CYP isoforms, the “In vitro inhibition or induction potential on major CYP isoforms” value is “did not have any apparent in vitro inhibition or induction potential”.
